Source: US20240360143A1, “[1,2,4]TRIAZOLO[4,3-A]PYRIMIDIN-7(8H)-ONE AS MITOCHONDRIAL PYRUVATE CARRIER INHIBITORS FOR USE IN THE TREATMENT OF CANCER” (MPC THERAPEUTICS SA, priority 2021, published 2024)

Assays:
[1] = test system: CD8 T cells (OT1 splenocytes); assay: In vitro priming of CD8 T cells (OT1 splenocytes), memory marker expression by flow cytometry; format: cell-based, mouse; conditions: day 7, highest doses
Method: OT1 splenocytes were cultured for 3 days at a concentration of 10^6 cells per mL in RPMI medium (Gibco 61870-01) supplemented with 10% FBS, (Gibco 10270-106), 1% Penicillin/Streptomycin (Gibco 15070-063), 50 μM ß-mercaptoethanol, 1% HEPES (Gibco 15630-080), 1× Non-essential amino acids (Gibco 11140-035), 1% L-glutamine (Gibco 25030-081), 1 mM Sodium Pyruvate (Gibco 11360-039). Cells were additionally supplemented with hIL-2 100 U/ml (Glaxo-IMB), ovalbumin N4 peptide (257-264) 1 μg/ml (model peptide antigen from ovalbumin) and either different concentrations of Compound 45 or 47 or with their solvent DMSO as a control. At day 3, splenocytes were collected, washed and split, and cells were cultured for 4 additional days with 100 U/ml hIL-2 and hIL-7 (Peprotech 200-07) supplemented either with Compound 45 or 47 or DMSO. At day 7, flow cytometry analyses were performed for surface marker expression.
To evaluate the effects of MPC inhibition on T cell differentiation, OTI splenocytes were cultured in the presence of 1 μg/ml ovalbumin-derived N4 peptide, 100 IU/ml recombinant human IL-2 (rhIL-2) and the MPC inhibitors Compound 45 or 47 or control DMSO for 3 days. The cells were cultured for 4 more days in the presence of 100 IU/ml IL-2 and 10 ng/ml rhIL-7 (FIG. 1A) and the inhibitors or DMSO. When analyzing the surface expression of the central memory marker CD62L (FIG. 1B) and the pro-survival receptor CD127 (FIG. 1C) by flow cytometry on day 7, an increase in cells treated with the highest doses of compounds of the invention was observed compared to DMSO.

B16-OVA melanoma = assay: Adoptive cell transfer of compound-treated OT1 CD8 T cells in B16-OVA melanoma tumor model; format: in vivo, mouse
Method: Activated CD45.1+OT-1 splenocytes were culture in vitro for 7 days as described above, collected and purified on a Ficoll gradient, allowing to separate dead and live splenocytes. Live splenocytes were counted with Trypan blue stain 0.4%. 100′000 or 2′000′000 live splenocytes were transferred into CD45.2+ host mice by tail vein injection.
B16-OVA cells were cultured in DMEM (GIBCO) with 10% FBS and 1% P/S before their subcutaneous injection into the mouse flank. Each mouse received 100′000 cells in a volume of 200 μl of PBS. 6 days after B16-OVA cells injection, tumors were measured, mice were randomized and lymphodepleted by irradiation (5 Gray). 7 days after B16-Ova injection, mice were adoptively transferred with the ACT protocol described previously. Following the ACT, mice received a vaccination of CpG (50 μg/mouse) and N4 Ova peptide (10 μg/mouse) diluted in PBS to obtain a total volume of 100 μl/mouse, injected subcutaneously at the tail base. Tumors were measured every 2 days and the tumor volume was calculated according to the formula: V=π×[d2×D]/6, where d is the minor tumor axis and D is the major tumor axis. At day 26 days post-tumor engraftment, tumors and spleens were dissected were then stained for flow cytometry analyses.
Briefly, 105 ovalbumin-expressing B16 melanoma cells were injected subcutaneously in 6-week-old mice. At day 6 post-engraftment, when a palpable tumor was present, mice were irradiated with 5Gy. The next day 105 Compound 45- or DMSO-treated OT1 cells were intravenously injected, followed by a subcutaneous vaccination of 50 μg CpG and 10 μg N4 Ova peptide (FIG. 2A). […] When analysing the blood 9 days post-adoptive cell transfer, one could observe an increase in number of transferred cells when treated in vitro with Compound 45 as compared to DMSO (FIG. 2D). The phenotype of the Compound 45-treated cells was biased towards memory, as there was a reduced percentage of short-lived effector T cells (FIG. 2E) and an increase in memory-precursor effector T cells and cells with a central memory phenotype (FIGS. 2F and 2G). When analysing the tumor upon dissection, more Compound 45-treated T cells were infiltrating the tumor (FIG. 2H).
In order to observe a stronger anti-tumor response of the transferred OT1 T cells, the previous experiment was repeated by transferring 2×10^6 DMSO- or Compound 45-treated OT1 T cells, instead of only 10^5 (FIG. 3A). […] When analysing the tumor upon dissection, no difference in T cell infiltration was observed (FIG. 3D). […] There was however no difference in terminally exhausted or progenitor exhausted T cells (FIGS. 3F and 3G). […] There was no difference in CD107a expression (FIG. 3O).

[2] = target: T1, mitochondrial pyruvate carrier (MPC) (Homo sapiens, UniProt O95563+Q9Y5U8); assay: Bret IC50, inhibitory activity against MPC; format: cell-based
T1 sequence (Q9Y5U8 1-109): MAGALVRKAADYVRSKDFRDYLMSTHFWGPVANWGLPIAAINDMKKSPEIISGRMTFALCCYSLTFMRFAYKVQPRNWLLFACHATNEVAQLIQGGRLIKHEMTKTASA
T1 sequence (O95563 1-127): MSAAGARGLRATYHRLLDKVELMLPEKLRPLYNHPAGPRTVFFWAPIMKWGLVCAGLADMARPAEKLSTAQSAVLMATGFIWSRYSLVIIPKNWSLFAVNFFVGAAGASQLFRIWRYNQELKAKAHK
Excerpt: The inhibition of mitochondrial pyruvate carrier (MPC) by compounds of the invention have been tested as follows and their inhibitory activity was expressed as IC50s values.
Table 2 below presents the IC50s of the compounds of the invention.

Question: What does the source list for O=c1cc(Cc2ccccc2)n2c(SCc3c(F)cccc3Cl)nnc2[nH]1 [Compound 45, 5-benzyl-3-[(2-chloro-6-fluorobenzyl)sulfanyl][1,2,4]triazolo[4,3-a]pyrimidin-7 (8H)-one]?
Answer: cells positive for central memory marker CD62L ([1]; vs DMSO (FIG. 1B)): increase; cells positive for pro-survival receptor CD127 ([1]; vs DMSO (FIG. 1C)): increase; number of treated T cells in the spleen (B16-OVA melanoma; 2×10^6 cells, spleen (FIG. 3H)): decreased; central memory phenotype in the spleen (B16-OVA melanoma; 2×10^6 cells, spleen (FIG. 3I)): increased; TCF1 expression in the spleen (B16-OVA melanoma; 2×10^6 cells, spleen (FIG. 3J)): trend towards increased; terminally exhausted T cells (B16-OVA melanoma; 2×10^6 cells, tumor (FIG. 3F)): no difference; progenitor exhausted T cells (B16-OVA melanoma; 2×10^6 cells, tumor (FIG. 3G)): no difference; IFNy expression (B16-OVA melanoma; 2×10^6 cells, tumor cells restimulated with OVA peptide (FIG. 3K)): did not show difference; TNF expression (B16-OVA melanoma; 2×10^6 cells, tumor cells restimulated with OVA peptide (FIG. 3L)): did not show difference; IL2 expression (B16-OVA melanoma; 2×10^6 cells, tumor cells restimulated with OVA peptide (FIG. 3M)): did not show difference; Granzyme B expression (B16-OVA melanoma; 2×10^6 cells, tumor cells restimulated with OVA peptide (FIG. 3N)): increased; CD107a expression (B16-OVA melanoma; 2×10^6 cells, tumor cells restimulated with OVA peptide (FIG. 3O)): no difference; T cell infiltration in tumor (B16-OVA melanoma; 2×10^6 cells, tumor upon dissection (FIG. 3D)): no difference; exhausted tumor infiltrating T cells (B16-OVA melanoma; 2×10^6 cells, vs DMSO (FIG. 3E)): more exhausted; B16 tumor growth (B16-OVA melanoma; 2×10^6 treated OT1 cells transferred, vs DMSO (FIG. 3B)): strongly reduced; B16 tumor weight (B16-OVA melanoma; 2×10^6 treated OT1 cells, vs DMSO (FIG. 3C)): strongly reduced; percentage of short-lived effector T cells (B16-OVA melanoma; 10^5 cells, blood 9 days post-ACT (FIG. 2E)): reduced; memory-precursor effector T cells (B16-OVA melanoma; 10^5 cells, blood 9 days post-ACT (FIG. 2F)): increase; cells with a central memory phenotype (B16-OVA melanoma; 10^5 cells, blood 9 days post-ACT (FIG. 2G)): increase; number of transferred cells in blood (B16-OVA melanoma; 10^5 cells, blood 9 days post-ACT, vs DMSO (FIG. 2D)): increase; number of treated T cells in the spleen (B16-OVA melanoma; 10^5 cells, spleen (FIG. 2L)): increased; central memory phenotype in the spleen (B16-OVA melanoma; 10^5 cells, spleen (FIG. 2M)): increased; TCF1 expression in the spleen (B16-OVA melanoma; 10^5 cells, spleen (FIG. 2N)): not significantly altered; IFNy expression (B16-OVA melanoma; 10^5 cells, tumor cells restimulated with OVA peptide (FIG. 2O)): did not show a significant increase; TNF expression (B16-OVA melanoma; 10^5 cells, tumor cells restimulated with OVA peptide (FIG. 2P)): did not show a significant increase; IL2 expression (B16-OVA melanoma; 10^5 cells, tumor cells restimulated with OVA peptide (FIG. 2Q)): did not show a significant increase; Granzyme B expression (B16-OVA melanoma; 10^5 cells, tumor cells restimulated with OVA peptide (FIG. 2R)): did not show a significant increase; expression of CD107a (LAMP1) (B16-OVA melanoma; 10^5 cells, tumor cells restimulated with OVA peptide (FIG. 2S)): increased; treated T cells infiltrating the tumor (B16-OVA melanoma; 10^5 cells, tumor upon dissection (FIG. 2H)): more; exhausted tumor infiltrating T cells (B16-OVA melanoma; 10^5 cells, vs DMSO (FIG. 2I)): not significantly more or less exhausted; B16 tumor growth (B16-OVA melanoma; 10^5 treated OT1 cells transferred, vs DMSO (FIG. 2B)): reduced; Tumor weight (B16-OVA melanoma; 10^5 treated OT1 cells, vs DMSO (FIG. 2C)): not significantly reduced; IC50 [2]: 117 nM
